Assay results published in patent publication US6413996B2, “Diaminocyclobutene-3,4-dione derivatives, their preparation and use” (Neurosearch A/S, priority 1998, dated 2002).

Key:
[1] = system: vacuolar-type proton pump; conditions: cited from earlier work
[2] = system: normal erythrocytes; test: K+-flux estimated by measuring extracellular K+-concentration vs time; assay type: cell-based; conditions: 10 μM
Source text: Deoxygenation induced permeability increases of sickle cells were estimated by measuring the extracellular K^+-concentration vs time. […] The K^+ flux from oxygenated sickle erythrocytes was 2-3 times higher than from normal erythrocytes and these fluxes was accelerated 4 - 8 times upon deoxygenation.

[3] = system: chloride channels in homozygoteous sickle cell erythrocytes; test: Cl- conductance (GCl) in suspensions of sickle cell erythrocytes; assay type: cell-based; conditions: oxygenated as well as deoxygenated homozygoteous sickle cell erythrocytes
Source text: (§1) The compounds of the present invention are potent blockers of chloride channels in normal as well as sickle cell erythrocytes.
(§2) All dose-response experiments were therefore performed by concomitant measurements of conductive netfluxes of Cl^− (JCl) and membrane potentials (Vm) in suspensions of erythrocytes (Bennekou, P. and Christophersen, P. (1986), Flux ratio of Valinomycin - Mediated K^+ Fluxes across the Human Red Cell Membrane in the presence of the Protronophore CCCP. J. Membrane Biol. 93, 221-227. ). The membrane Cl^−conductances (GCl) were calculated by the following equation (Hodgkin, A. L. and Huxley, A. F. (1952) The components of membrane conductance in the giant axon of Loligo. J. Physiol. Lond. 116, 449-472): [formula]
(§3) where F is the Faraday constant, ECl is the Nernst potential for the Cl-ion.

[4] = system: chloride channels in normal erythrocytes; test: Cl- conductance (GCl) from concomitant measurement of conductive Cl- netfluxes and membrane potentials in erythrocyte suspensions; assay type: cell-based, human; conditions: suspension of normal erythrocytes
Source text: as §1, §2, §3

[5] = system: osteoclast bone resorbtion; conditions: in vitro (Ohba et al, 1996); cited from earlier work
[6] = system: bone degration; conditions: in vivo, growing young rats (Keeling et al, 1997); cited from earlier work

In the case of `COc1ccc2[nH]c([S+]([O-])Cc3ncc(C)c(OC)c3C)nc2c1` (stereo not drawn) [omeprazol], the “block of the proton pump” value [1] is given as “ineffective”.

With `O=C(Nc1cccc(C(F)(F)F)c1)Nc1ccccc1C(=O)O` [3-Trifluoromethylphenyl-2-carboxyphenyl urea] the “sensitivity of K+-fluxes to compound” value [2] was “insensitive”, the “block of GCl from sickle cell erythrocytes” value [3] was “equipotently blocked” and the “block of GCl” value [4] was “more than 95%”. The Kd ([4]; read-out: KD-value for block of GCl) was 1300 nM.

In the case of `CO/C1=C\C(C)=C\[C@@H](C)[C@@H](O)[C@@H](C)C/C(C)=C/C=C/[C@H](OC)[C@@H]([C@@H](C)[C@@H](O)[C@H](C)[C@@]2(O)C[C@@H](O)[C@H](C)[C@@H](C(C)C)O2)OC1=O` [bafilomycin A1], the “effect on bone resorbtion in pit formation assay” value [5] is listed as “completely eliminates bone resorbtion”, the “effect on bone degration” value [6] is listed as “depresses bone degration” and the “block of the proton pump” value [1] is listed as “extremely potent, reversible inhibitor”.

In the case of `CC(=O)Nc1nnc(S(N)(=O)=O)s1` [acetacolamide], the “effect on bone resorbtion in pit formation assay” value [5] is given as “effective”.
